Here are results for 43 molecules from patent US20230174523A1, “BENZENESULFONAMIDE DERIVATIVES AS TRAP1 MODULATORS AND USES THEREOF” (Amathus Therapeutics, Inc., priority 2020, published 2023).

Some results are limits rather than exact numbers.

For the assay, the target named is T1, TRAP1 enzyme (Homo sapiens, UniProt Q12931).
T1 sequence (Q12931 60-704): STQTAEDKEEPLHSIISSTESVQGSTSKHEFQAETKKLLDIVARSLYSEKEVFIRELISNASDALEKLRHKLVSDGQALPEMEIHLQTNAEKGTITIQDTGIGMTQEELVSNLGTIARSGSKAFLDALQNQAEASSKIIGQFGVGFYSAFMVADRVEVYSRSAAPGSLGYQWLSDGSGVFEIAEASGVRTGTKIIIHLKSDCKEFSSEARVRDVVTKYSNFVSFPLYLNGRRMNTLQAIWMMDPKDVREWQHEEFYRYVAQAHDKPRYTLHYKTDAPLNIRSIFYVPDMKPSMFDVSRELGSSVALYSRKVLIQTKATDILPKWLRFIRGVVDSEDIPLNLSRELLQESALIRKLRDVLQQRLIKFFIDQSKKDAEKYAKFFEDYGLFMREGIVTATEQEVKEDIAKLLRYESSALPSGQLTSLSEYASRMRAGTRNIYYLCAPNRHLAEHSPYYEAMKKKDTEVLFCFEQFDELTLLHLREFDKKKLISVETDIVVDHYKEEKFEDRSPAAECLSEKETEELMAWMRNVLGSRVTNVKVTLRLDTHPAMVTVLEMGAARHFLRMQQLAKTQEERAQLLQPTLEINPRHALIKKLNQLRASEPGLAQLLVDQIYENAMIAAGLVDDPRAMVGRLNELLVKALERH
Description: ADP Glo assay of TRAP1 ATPase activity. The assay is classed as biochemical. To be noted: for EC50: TRAP1 ATPase activation, 150 nM Trap1, 20 μM ATP, geometric mean, read-out: ADP GLO DRC: GeoMean EC50; for Emax: read-out: ADP GLO DRC: Mean Emax. As to the method: Potency of test compounds to modulate the ATPase activity of TRAP1 enzyme was evaluated using ADP Glo assay. The assay is based on quantification of the ADP generated from ATP in the ATPase reaction. The assay is performed in two steps: first, after the ATPase reaction, an equal volume of ADP-Glo™ Reagent is added to terminate the ATPase reaction and deplete the remaining ATP. Second, the Kinase Detection Reagent is added to simultaneously convert ADP to ATP and allow the newly synthesized ATP to be measured using a luciferase/luciferin reaction.
All the assays were carried out in a 384-well Proxiplate. The buffer used was 25 mM Pipes pH-7.5, 40 mM KCl, 0.05 mM MgCl2, 0.025% BSA, 0.316 mM EGTA, 0.003% Empigen, 0.01% Igepal. 150 nM Trap1 enzyme was incubated with various concentrations of the test compound (0.79 μM-100 μM) at 37° C. for 30 mins (except in blank wells). 20 μM ATP was added to each well to start the reaction. The plate was spun for 1 min at 1200 rpm and then incubated at 37° C. for 60 mins. 5 μl of ADP Glo reagent was added to all the wells and spun the plate for 1 min at 1200 rpm and kept it on a shaker at ambient temperature for 60 mins. 10 μl of kinase detection mix was added to all the wells and the plate was read for Luminescence at 495 nm. The amount of ADP released was estimated from ATP/ADP standard curve generated at the same experimental conditions. Emax (Maximal percent activation) and EC50 (concentration for half maximal activation) were estimated by fitting the dose response data to a sigmoidal curve fitting equation using Graphpad Prism software V. 8.
For orientation: ADP-Glo first removes unused ATP, then detects ADP through luciferase.

Regarding `COc1ccc(NC(=O)c2cccc([C@H](F)c3cccc(F)c3)c2)cc1S(=O)(=O)Nc1c(C)cccc1C` [Compound 1034], the EC50 was less than 10 µM and the Emax is 160 to 199%.

As to `COc1ccc(NC(=O)c2ccc(N3CCCC3)c(F)c2)cc1S(=O)(=O)Nc1c(C)cccc1C` [Compound 1004], the EC50 was less than 10 µM and the maximal response (Emax) is 160 to 199%.

With `COc1ccc(NC(=O)c2csc3c2C2CCN3CC2)cc1S(=O)(=O)Nc1c(C)cccc1C` [Compound 1945], the EC50 was 10 to 20 µM and the Emax lay within 160 to 199%.

Turning to `COc1ccc(NC(=O)c2ccc3ncoc3c2)cc1S(=O)(=O)Nc1c(C)cccc1C` [Compound 1236], the EC50 lay in the range of 20 to 100 µM and the Emax was in the range of 123 to 159%.

With `COc1ccc(NC(=O)c2cc(F)cc(Br)c2C)cc1S(=O)(=O)Nc1c(C)cccc1C` [Compound 1065], the EC50 was less than 10 µM and the maximum response (Emax) lay within 123 to 159%.

For `COc1ccc(NC(=O)c2cccc3ncsc23)cc1S(=O)(=O)Nc1c(C)cccc1C` [Compound 1227], the EC50 was in the range of 10 to 20 µM and the Emax lay in the range of 200 to 300%.

For `COc1ccc(NC(=O)c2c(-c3ccccc3)noc2C)cc1S(=O)(=O)Nc1c(C)cccc1C` [Compound 1279], the concentration for a half-maximal effect (EC50) was less than 10 µM and the Emax fell in the range of 200 to 300%.

In the case of `COc1ccc(NC(=O)c2ccc3c(Br)nn(C)c3c2)cc1S(=O)(=O)Nc1c(C)cccc1C` [Compound 1024], the EC50 was less than 10 µM and the Emax lay in the range of 200 to 300%.

Take `COc1ccc(NC(=O)c2ccc3c(c2)CCCO3)cc1S(=O)(=O)Nc1c(C)cccc1C` [Compound 1121]: the EC50 was less than 10 µM and the Emax fell in the range of 160 to 199%.

On to `COc1ccc(NC(=O)c2cccc(-c3ccnn3C)c2)cc1S(=O)(=O)Nc1c(C)cccc1C` [Compound 1242], for which the EC50 is less than 10 µM and the Emax was greater than 300%.

Take `COc1ccc(NC(=O)c2ncc(OC(F)F)cc2Cl)cc1S(=O)(=O)Nc1c(C)cccc1C` [Compound 1127]: the EC50 lay within 20 to 100 µM and the Emax was in the range of 123 to 159%.

Take `CCc1nccc(C)c1NS(=O)(=O)c1cc(NC(=O)c2ncc(-c3ccccc3)o2)ccc1OC` [Compound 1697]: the EC50 lay in the range of 20 to 100 µM and the Emax is 123 to 159%.

`COc1ccc(NC(=O)c2cnn(-c3ccccc3)c2)cc1S(=O)(=O)Nc1c(C)cccc1C` [Compound 1292]: the EC50 lay in the range of 10 to 20 µM and the maximum response (Emax) was in the range of 200 to 300%.

For the molecule `COc1ccc(NC(=O)c2ccc3ncsc3c2)cc1S(=O)(=O)Nc1c(C)cccc1C` [Compound 1233], the EC50 lay within 10 to 20 µM and the Emax fell in the range of 160 to 199%.

For the molecule `COc1ccc(NC(=O)c2cccc(-c3cccnc3)c2)cc1S(=O)(=O)Nc1c(C)cccc1C` [Compound 1225], the 50% effective concentration (EC50) is less than 10 µM and the Emax is 200 to 300%.

Turning to `Cc1nc(C(=O)Nc2ccc(F)c(S(=O)(=O)Nc3ccc(Cl)cc3)c2)c(C)s1` [Compound 716], the EC50 was 20 to 100 µM and the Emax was 123 to 159%.

Regarding `COc1ccc(NC(=O)c2coc(-c3cc(F)c(F)c(F)c3)n2)cc1S(=O)(=O)Nc1c(C)csc1C` [Compound 2415], the EC50 was less than 10 µM and the Emax was in the range of 123 to 159%.

`COc1ccc(NC(=O)c2cccnc2-c2ccccc2C)cc1S(=O)(=O)Nc1c(C)cccc1C` [Compound 1053]: the EC50 lay within 20 to 100 µM and the Emax lay in the range of 160 to 199%.

`COc1ccc(NC(=O)c2cccc(-n3ccnc3)c2)cc1S(=O)(=O)Nc1c(C)cccc1C` [Compound 1232]: the EC50 fell in the range of 10 to 20 µM and the Emax is 200 to 300%.

Turning to `CCOc1ccsc1C(=O)Nc1ccc(F)c(S(=O)(=O)Nc2ccc(Cl)cc2)c1` [Compound 765], the EC50 fell in the range of 20 to 100 µM and the Emax is 123 to 159%.

As for `Cc1nc2cc(C(=O)Nc3ccc(F)c(S(=O)(=O)Nc4ccc(Cl)cc4)c3)ccc2n1-c1ccccc1` [Compound 735], the EC50 was less than 10 µM and the Emax is 123 to 159%.

Take `COc1ccc(NC(=O)c2cc(Cl)ncc2C(F)(F)F)cc1S(=O)(=O)Nc1c(C)cccc1C` [Compound 1274]: the EC50 was in the range of 20 to 100 µM and the maximal response (Emax) lay within 123 to 159%.

Regarding `Cc1oc(C)c(C(=O)Nc2ccc(F)c(S(=O)(=O)Nc3ccc(Cl)cc3)c2)c1C` [Compound 740], the EC50 lay within 10 to 20 µM and the Emax lay within 123 to 159%.

`COc1ccccc1-c1nc(C(=O)Nc2ccc(OC)c(S(=O)(=O)Nc3ccc(Br)cc3)c2)c[nH]1` [Compound 1181]: the EC50 was less than 10 µM and the Emax was 160 to 199%.

For `COc1ccc(NC(=O)c2ccc3ncccc3c2)cc1S(=O)(=O)Nc1c(C)cccc1C` [Compound 1241], the EC50 lay in the range of 10 to 20 µM and the Emax lay in the range of 200 to 300%.

Take `COc1ccc(NC(=O)c2cccc3nccnc23)cc1S(=O)(=O)Nc1c(C)cccc1C` [Compound 1251]: the EC50 fell in the range of 10 to 20 µM and the Emax lay in the range of 160 to 199%.

For the molecule `COc1ccc(NC(=O)c2cnc(-c3ccccc3)s2)cc1S(=O)(=O)Nc1ccc(Cl)cc1` [Compound 468], the EC50 is less than 10 µM and the Emax lay in the range of 160 to 199%.

`O=C(Nc1ccc(F)c(S(=O)(=O)Nc2ccc(Cl)cc2)c1)c1cnccc1-c1ccccc1` [Compound 770]: the EC50 lay within 20 to 100 µM and the Emax fell in the range of 160 to 199%.

As to `COc1ccc(NC(=O)c2onc3c2CCCC3)cc1S(=O)(=O)Nc1c(C)cccc1C` [Compound 1056], the EC50 lay in the range of 20 to 100 µM and the Emax fell in the range of 123 to 159%.

With `COc1ccc(NC(=O)c2cccc(-c3cnccn3)c2)cc1S(=O)(=O)Nc1c(C)cccc1C` [Compound 1222], the EC50 is 10 to 20 µM and the Emax lay in the range of 200 to 300%.

In the case of `O=C(Nc1ccc(F)c(S(=O)(=O)Nc2ccc(Cl)cc2)c1)c1ccccc1C(=O)c1ccccc1` [Compound 681], the EC50 is less than 10 µM and the Emax lay in the range of 160 to 199%.

Regarding `CCc1ccc(NC(=O)c2cccc3ncn(C)c23)cc1S(=O)(=O)Nc1c(C)cccc1C` [Compound 1353], the EC50 lay in the range of 10 to 20 µM and the Emax lay within 160 to 199%.

Consider `COc1ccc(NC(=O)c2cn(C)c3ncccc23)cc1S(=O)(=O)Nc1ccc(Cl)cc1` [Compound 1345], for which the half-maximal effective concentration (EC50) was less than 10 µM and the Emax fell in the range of 160 to 199%.

Regarding `COc1ccc(NC(=O)c2cc(C)n(C)c2)cc1S(=O)(=O)Nc1c(C)cccc1C` [Compound 1009], the EC50 lay within 20 to 100 µM and the Emax was in the range of 160 to 199%.

On to `COc1ccc(NC(=O)c2ccc(Cl)nc2C)cc1S(=O)(=O)Nc1c(C)cccc1C` [Compound 1057], for which the EC50 is 20 to 100 µM and the Emax was 160 to 199%.

Consider `COc1ccc(NC(=O)c2csc3c2CCCC3)cc1S(=O)(=O)Nc1c(C)cccc1C` [Compound 1144], for which the EC50 is less than 10 µM and the Emax was 160 to 199%.

As to `COc1ccc(NC(=O)c2cccc3nc(C)sc23)cc1S(=O)(=O)Nc1c(C)cccc1C` [Compound 1017], the EC50 is less than 10 µM and the Emax lay in the range of 200 to 300%.

Regarding `CCc1ccnc(C(=O)Nc2ccc(OC)c(S(=O)(=O)Nc3c(C)cccc3C)c2)c1` [Compound 1151], the EC50 was less than 10 µM and the Emax was in the range of 200 to 300%.

As to `COc1ccc(NC(=O)c2ccn(-c3ccccc3)n2)cc1S(=O)(=O)Nc1c(C)cccc1C` [Compound 1071], the EC50 lay in the range of 10 to 20 µM and the Emax was in the range of 200 to 300%.

In the case of `COc1ccc(NC(=O)c2cccnc2-c2ccc(C)cc2)cc1S(=O)(=O)Nc1c(C)cccc1C` [Compound 1045], the EC50 lay within 10 to 20 µM and the maximal response (Emax) was 123 to 159%.

For `CCCN1CCN(c2ccc(C(=O)Nc3ccc(OC)c(S(=O)(=O)Nc4c(C)cccc4C)c3)cc2)CC1` [Compound 1174], the EC50 is less than 10 µM and the Emax was 160 to 199%.

In the case of `COc1ccc(NC(=O)c2cnc3ccccc3c2)cc1S(=O)(=O)Nc1c(C)cccc1C` [Compound 1330], the EC50 was less than 10 µM and the maximum response (Emax) lay within 200 to 300%.

Consider `Cc1ncc(Br)cc1C(=O)Nc1ccc(F)c(S(=O)(=O)Nc2ccc(Cl)cc2)c1` [Compound 795], for which the EC50 is 10 to 20 µM and the Emax was in the range of 160 to 199%.

Usually EC50 stands for the concentration that produces a half-maximal response. In general, Emax refers to the greatest response seen or fitted, relative to the assay's reference.
